Where no end group is shown, it is not given here. [ ]: non-standard residue; d: D form. Aib = CC(C)(N)C(=O)O
Key:
CSN^ΔCSNAP complex = test: Peptide array screen of C-CSNAP peptides with rCSN^ΔCSNAP; assay type: binding; settings: average of 5 experiments;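 also: Array-printed peptides incubated with 0.5 µM CSN^ΔCSNAP, bound complex detected by anti-CSN3 antibody plus HRP-linked secondary, spot intensity expressed relative to the parent reference peptide spot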
Method: Peptide array screen of modified C-CSNAP peptides. C-CSNAP peptide and its derivatives were printed on a microarray. The array was blocked and incubated with or without the CSN∆CSNAP complex and probed using an anti-CSN3 antibody and HRP-conjugated secondary antibody. To assess non-specific binding of the antibodies to the array, anti-CSN3 and anti-GAR-HRP were used without the addition of the COP9 signalosome complex (CSN). Signal intensity of each spot was measured and normalized to the intensity of the spot of C-CSNAP (A1). Measured values for each spot were averaged from six arrays and plotted with standard errors SEM.
(§1) Intensity values are normalized to the intensity of the 16AA C-CSNAP peptide (A1) on each array from three independent experiments in duplicates, and averages from the six replicates are calculated with SEM.
(§2) Optimization of C-CSNAP sequence for enhanced binding to recombinant CSN^ΔCSNAP was screened by printing the modified sequences of CSNAP or C-CSNAP (Phe to Trp, Asp to Glu, Ala screen, D-amino acid screen, N-α-methylation, and Aib incorporation on INTAVIS Celluspots array [2 × 384spots]). The array was blocked with 5% skim milk in TBS-0.5% Tween 20 (TBS-T) for 4 h at room temperature, washed three times in TBS-T, and then incubated with 0.5 μM CSN^ΔCSNAP in 5% milk–TBS-T. Bound CSN^ΔCSNAP was visualized by incubating with anti-CSN3 (ab79698) antibody (1:10,000, overnight) and goat-anti-rabbit-HRP secondary antibody (1:10,000, 1 h).

recombinant CSN complex = test: Peptide array screen of C-CSNAP peptides with recombinant CSN (rCSN^WT); assay type: binding; settings: for Average fold change, intensities as fold of C-CSNAP (A1): rCSN^WT on INTAVIS Celluspots array, anti-CSN3 and HRP secondary antibody, average of six replicates (three independent experiments in duplicates); for intensities as fold of C-CSNAP (A1), Experiment #1 left / intensities as fold of C-CSNAP (A1), Experiment #1 right / intensities as fold of C-CSNAP (A1), Experiment #2 left / intensities as fold of C-CSNAP (A1), Experiment #2 right / intensities as fold of C-CSNAP (A1), Experiment #3 left / intensities as fold of C-CSNAP (A1), Experiment #3 right: rCSN^WT peptide array; for intensities as fold of C-CSNAP (A1), Experiment #1 left: replicate: Experiment #1, left array; for intensities as fold of C-CSNAP (A1), Experiment #1 right: replicate: Experiment #1, right array; for intensities as fold of C-CSNAP (A1), Experiment #2 left: replicate: Experiment #2, left array; for intensities as fold of C-CSNAP (A1), Experiment #2 right: replicate: Experiment #2, right array; for intensities as fold of C-CSNAP (A1), Experiment #3 left: replicate: Experiment #3, left array; for intensities as fold of C-CSNAP (A1), Experiment #3 right: replicate: Experiment #3, right array; for Average fold change: peptide array with rCSN, average of 3 experiments, left and right (n = 6), fold of C-CSNAP (A1);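 as to all read-outs here: densitometric signal of CSN bound to each synthesized peptide spot, with an antibody-only array lacking CSN run to exclude non-specific binding, higher values meaning stronger binding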
Method: To generate an optimized C-CSNAP peptide, we used the peptide array methodology. The array was designed to screen for the optimal peptide length, sequence, and stability (Fig 3A). A recombinant CSN complex was expressed, purified, and screened for binding to the peptide array by using an anti-CSN3 antibody. To rule out non-specific binding of the probing antibody, a control experiment was carried out without the addition of the CSN complex (Fig 3A right panel).
C-CSNAP peptide and its derivatives were synthesized on a microarray. The array was blocked and incubated with or without the COP9 signalosome complex (CSN) and probed using an anti-CSN3 antibody and HRP-conjugated secondary antibody. To assess non-specific binding of the antibodies to the array, anti-CSN3 and anti-GAR–HRP were used without the addition of the CSN. Signal intensity of each spot was measured and normalized to the intensity of the spot of C-CSNAP (A1). Measured values for each spot were averaged from six arrays and plotted with SEM. […] (A) A representative image of the peptide array (left) and the background (right). (B) Elongation of the C-terminal 16 amino acids (green) with one residue at a time based on the full-length sequence. […] (F) Single D-amino acid substitution at various positions.
as §1, §2

[1] = peptide array with rCSN^ΔCSNAP, left and right (n = 10), fold of C-CSNAP (A1)
[2] = peptide array, rCSN^ΔCSNAP, left and right spots

Substance	Average fold change, intensities as fold of C-CSNAP (A1) (recombinant CSN complex)	Average fold change (CSN^ΔCSNAP complex; [2])	further results
AANEKAVHADFFNDFEDLFDDDDIQ [Position A10, CSNAP residues 33-57]	1.0826 fold of C-CSNAP (A1)		Average fold change (CSN^ΔCSNAP complex; [1]): 0.9871 fold
ADFFNDFEDLFDDDDIQ [A 2, CSNAP residues 41-57]	0.9705 fold of C-CSNAP (A1)		Average fold change (CSN^ΔCSNAP complex; [1]): 0.9058 fold
DAFNDFEDLFDDDDIQ [Position B21, C-CSNAP, Ala substitution F43A]	0.8509 fold of C-CSNAP (A1)		Average fold change (CSN^ΔCSNAP complex; [1]): 1.1048 fold
DFF-Aib-DFED-Aib-FDDDI-Aib-Q [Position H16, C-CSNAP with Aib incorporation (45,50,56)]	0.4930 fold of C-CSNAP (A1)		Average fold change, intensities as fold of C-CSNAP (A1) (CSN^ΔCSNAP complex; [2]): 0.8483 fold; intensities as fold of C-CSNAP (A1), Experiment #1 left (recombinant CSN complex): 0.3868 fold of C-CSNAP (A1); intensities as fold of C-CSNAP (A1), Experiment #1 right (recombinant CSN complex): 0.3074 fold of C-CSNAP (A1); intensities as fold of C-CSNAP (A1), Experiment #2 left (recombinant CSN complex): 0.3253 fold of C-CSNAP (A1); intensities as fold of C-CSNAP (A1), Experiment #2 right (recombinant CSN complex): 0.4113 fold of C-CSNAP (A1); intensities as fold of C-CSNAP (A1), Experiment #3 left (recombinant CSN complex): 0.4290 fold of C-CSNAP (A1); intensities as fold of C-CSNAP (A1), Experiment #3 right (recombinant CSN complex): 1.0982 fold of C-CSNAP (A1)
DFFN-Aib-FEDLF-Aib-DDDI-Aib [Position H17, C-CSNAP with Aib incorporation (46,52,57)]	0.3449 fold of C-CSNAP (A1)		Average fold change, intensities as fold of C-CSNAP (A1) (CSN^ΔCSNAP complex; [2]): 0.7091 fold; intensities as fold of C-CSNAP (A1), Experiment #1 left (recombinant CSN complex): 0.3158 fold of C-CSNAP (A1); intensities as fold of C-CSNAP (A1), Experiment #1 right (recombinant CSN complex): 0.2689 fold of C-CSNAP (A1); intensities as fold of C-CSNAP (A1), Experiment #2 left (recombinant CSN complex): 0.1472 fold of C-CSNAP (A1); intensities as fold of C-CSNAP (A1), Experiment #2 right (recombinant CSN complex): 0.2740 fold of C-CSNAP (A1); intensities as fold of C-CSNAP (A1), Experiment #3 left (recombinant CSN complex): 0.2292 fold of C-CSNAP (A1); intensities as fold of C-CSNAP (A1), Experiment #3 right (recombinant CSN complex): 0.8343 fold of C-CSNAP (A1)
DFFN-Aib-FEDLF-Aib-DDDIQ-Aib [Position H15, C-CSNAP with Aib incorporation (46,52,58)]	0.4542 fold of C-CSNAP (A1)		Average fold change, intensities as fold of C-CSNAP (A1) (CSN^ΔCSNAP complex; [2]): 0.5199 fold; intensities as fold of C-CSNAP (A1), Experiment #1 left (recombinant CSN complex): 0.3458 fold of C-CSNAP (A1); intensities as fold of C-CSNAP (A1), Experiment #1 right (recombinant CSN complex): 0.3290 fold of C-CSNAP (A1); intensities as fold of C-CSNAP (A1), Experiment #2 left (recombinant CSN complex): 0.2291 fold of C-CSNAP (A1); intensities as fold of C-CSNAP (A1), Experiment #2 right (recombinant CSN complex): 0.4652 fold of C-CSNAP (A1); intensities as fold of C-CSNAP (A1), Experiment #3 left (recombinant CSN complex): 0.2799 fold of C-CSNAP (A1); intensities as fold of C-CSNAP (A1), Experiment #3 right (recombinant CSN complex): 1.0762 fold of C-CSNAP (A1)
DFFNDFEDAFDDDDIQ [C 4, C-CSNAP, Ala substitution L50A]	0.5335 fold of C-CSNAP (A1)		Average fold change (CSN^ΔCSNAP complex; [1]): 0.8879 fold
DFFNDFEDLFDDDDAQ [Position C10, C-CSNAP, Ala substitution I56A]	1.1392 fold of C-CSNAP (A1)		Average fold change (CSN^ΔCSNAP complex; [1]): 1.2151 fold
DFFNDFEDLFDDDEIQ [D 9, C-CSNAP, Asp to Glu substitution D55E]	1.0265 fold of C-CSNAP (A1)	1.0696 fold of C-CSNAP (A1)	
DFFNDFEDLFDDEDIQ [D 8, C-CSNAP, Asp to Glu substitution D54E]	0.9836 fold of C-CSNAP (A1)	1.1238 fold of C-CSNAP (A1)	
DFFNDFEDLFDD[Aib]DIQ[Aib] [Position H18, C-CSNAP with Aib incorporation (54,58)]	0.2987 fold of C-CSNAP (A1)		Average fold change, intensities as fold of C-CSNAP (A1) (CSN^ΔCSNAP complex; [2]): 1.0167 fold; intensities as fold of C-CSNAP (A1), Experiment #1 left (recombinant CSN complex): 0.3071 fold of C-CSNAP (A1); intensities as fold of C-CSNAP (A1), Experiment #1 right (recombinant CSN complex): 0.2334 fold of C-CSNAP (A1); intensities as fold of C-CSNAP (A1), Experiment #2 left (recombinant CSN complex): 0.1973 fold of C-CSNAP (A1); intensities as fold of C-CSNAP (A1), Experiment #2 right (recombinant CSN complex): 0.2444 fold of C-CSNAP (A1); intensities as fold of C-CSNAP (A1), Experiment #3 left (recombinant CSN complex): 0.2003 fold of C-CSNAP (A1); intensities as fold of C-CSNAP (A1), Experiment #3 right (recombinant CSN complex): 0.6096 fold of C-CSNAP (A1)
DFFNDFEDLFDEDDIQ [D 7, C-CSNAP, Asp to Glu substitution D53E]	0.9008 fold of C-CSNAP (A1)	1.1500 fold of C-CSNAP (A1)	
DFFNDFEDLFEDDDIQ [D 6, C-CSNAP, Asp to Glu substitution D52E]	0.9809 fold of C-CSNAP (A1)	1.1581 fold of C-CSNAP (A1)	
DFFNDFEDLFEDDEIQ [E 3, C-CSNAP, Asp to Glu substitution D52,55E]	0.8879 fold of C-CSNAP (A1)	0.8137 fold of C-CSNAP (A1)	
DFFNDFEDLFEDEDIQ [E 2, C-CSNAP, Asp to Glu substitution D52,54E]	0.8694 fold of C-CSNAP (A1)	0.9955 fold of C-CSNAP (A1)	
DFFNDFEDLFEDEEIQ [D52,53,56E]		1.1721 fold of C-CSNAP (A1)	Average fold change (recombinant CSN complex): 0.6027 fold
DFFNDFEDLFEEDDIQ [E 1, C-CSNAP, Asp to Glu substitution D52,53E]	0.6914 fold of C-CSNAP (A1)	1.1244 fold of C-CSNAP (A1)	
DFFNDFEDLFEEDEIQ [D52,53,55E]		1.3267 fold of C-CSNAP (A1)	Average fold change (recombinant CSN complex): 0.6917 fold
DFFNDFEDLFEEEDIQ [D52,53,54E]		1.1046 fold of C-CSNAP (A1)	
DFFNDFEDLFEEEEIQ [D52,53,54,55E]		1.3020 fold of C-CSNAP (A1)	Average fold change (recombinant CSN complex): 0.7255 fold
DFFNDFEDLWDDDDIQ [Position C15, C-CSNAP, Phe to Trp substitution F51W]	0.8159 fold of C-CSNAP (A1)	1.0302 fold of C-CSNAP (A1)	
DFFNDFEELFDDDDIQ [D 5, C-CSNAP, Asp to Glu substitution D49E]	0.8086 fold of C-CSNAP (A1)	0.9235 fold of C-CSNAP (A1)	
DFFNDFEELFDDDEIQ [Position D24, C-CSNAP, Asp to Glu substitution D49,55E]	0.5347 fold of C-CSNAP (A1)	1.2175 fold of C-CSNAP (A1)	
DFFNDFEELFDDEDIQ [Position D23, C-CSNAP, Asp to Glu substitution D49,54E]	0.5825 fold of C-CSNAP (A1)	1.0923 fold of C-CSNAP (A1)	
DFFNDFEELFDEDDIQ [Position D22, C-CSNAP, Asp to Glu substitution D49,53E]	0.6642 fold of C-CSNAP (A1)	1.3252 fold of C-CSNAP (A1)	
DFFNDFEELFEDDDIQ [Position D21, C-CSNAP, Asp to Glu substitution D49,52E]	0.6335 fold of C-CSNAP (A1)	1.3626 fold of C-CSNAP (A1)	
DFFNDFEELFEDDEIQ [Position E19, C-CSNAP, Asp to Glu substitution D49,52,55E]	0.6448 fold of C-CSNAP (A1)	1.0909 fold of C-CSNAP (A1)	

Reference: paper PMC10355216, “The C-terminal tail of CSNAP attenuates the CSN complex” (Life Science Alliance, 2023)
